We go through 14 molecules from patent US11878965B2, “Inhibitors of peptidylarginine deiminases” (Gilead Sciences, Inc., priority 2020, dated 2024).

Structures are written as SMILES.

This assay addresses human PAD4 (Homo sapiens (Human), UniProt Q9UM07). The assay can be described thus: In Vitro PAD4 BAEE Biochemical Assay. The settings on record: geometric mean of multiple experiments. Put shortly:
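Recombinant human PAD4 (His-SUMO tag removed, E. coli-expressed), 5 nM, preincubated with compound and 2 mM CaCl2 30 min at 25 °C in MOPS pH 7.6 with DTT; 3 mM BAEE added for 2 h at 25 °C, EDTA stop. Released ammonia detected by o-phthalaldehyde/DTT fluorescence (ex 405, em 535 nm).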

Where [1] appears, read: human PAD4, BAEE substrate, 5 nM PAD4, 2 mM calcium chloride, 3 mM BAEE.

human PAD4, sequence (Q9UM07 2-663): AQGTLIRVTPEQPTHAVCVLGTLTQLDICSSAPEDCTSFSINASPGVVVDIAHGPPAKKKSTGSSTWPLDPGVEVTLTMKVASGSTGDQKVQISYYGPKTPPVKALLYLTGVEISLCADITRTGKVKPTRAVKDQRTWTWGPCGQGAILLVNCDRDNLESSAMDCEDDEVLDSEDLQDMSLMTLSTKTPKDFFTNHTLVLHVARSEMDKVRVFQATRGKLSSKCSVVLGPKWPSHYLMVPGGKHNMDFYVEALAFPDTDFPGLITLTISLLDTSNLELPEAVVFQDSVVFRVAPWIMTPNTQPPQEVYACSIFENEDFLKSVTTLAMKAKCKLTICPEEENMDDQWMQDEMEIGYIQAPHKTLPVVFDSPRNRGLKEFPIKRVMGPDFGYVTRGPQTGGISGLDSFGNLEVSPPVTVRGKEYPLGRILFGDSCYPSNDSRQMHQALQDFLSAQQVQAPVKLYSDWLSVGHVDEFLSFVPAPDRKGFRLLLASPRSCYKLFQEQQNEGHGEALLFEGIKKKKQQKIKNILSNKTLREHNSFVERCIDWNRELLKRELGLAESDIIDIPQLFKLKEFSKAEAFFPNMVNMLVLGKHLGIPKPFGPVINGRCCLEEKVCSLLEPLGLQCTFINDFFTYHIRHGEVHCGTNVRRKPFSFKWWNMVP

Broadly, the IC50 is the concentration needed to halve the response being measured. Turning to `COc1cc(C(=O)N2C[C@H](N)[C@@H]3CC[C@H]2C3)cc2nc(-c3cc4ccc([C@@H](C)NC(=O)C5(C(F)(F)F)CC5)nc4n3CC3CC3)n(C)c12` [Example 289, N-((R)-1-(2-(5-((1S,4R,5R)-4-amino-2-azabicyclo[3.2.1]octane-2-carbonyl)-7-methoxy-1-methyl-1H-benzo[d]imidazol-2-yl)-1-(cyclopropylmethyl)-1H-pyrrolo[2,3-b]pyridin-6-yl)ethyl)-1-(trifluoromethyl) cyclopropane-1-carboxamide], the IC50 (recombinant PAD4 5 nM, 2 mM calcium chloride, 3 mM BAEE substrate) was found to be 0.174 µM.

Turning to `Cc1cc2c(cc1C(=O)N1CCC[C@@H](N)C1)nc(-c1cc3ccc(N(C(F)F)S(C)(=O)=O)nc3n1CC1CC1)n2C` [Example 58, (R)-N-(2-(5-(3-aminopiperidine-1-carbonyl)-1,6-dimethyl-1H-benzo[d]imidazol-2-yl)-1-(cyclopropylmethyl)-1H-pyrrolo [2,3-b]pyridin-6-yl)-N-(difluoromethyl) methanesulfonamide], under setting [1], the IC50 worked out at 4.34 µM. In the case of `CN(c1ccc2cc(-c3nc4cc(C(=O)N5CCC[C@@H](N)C5)cc5c4n3CCO5)n(CC3CC3)c2n1)S(C)(=O)=O` [Example 89, (R)-N-(2-(7-(3-aminopiperidine-1-carbonyl)-3,4-dihydro-5-oxa-1,2a-diazaacenaphthylen-2-yl)-1-(cyclopropylmethyl)-1H-pyrrolo[2,3-b]pyridin-6-yl)-N-methylmethanesulfonamide], under setting [1], the IC50 is 0.812 µM. The same measure, in the same setting: then `CCCN(c1ccc2cc(-c3nc4cc(C(=O)N5CCC[C@@H](N)C5)cc(OC)c4n3C)n(CC3CC3)c2n1)S(C)(=O)=O` [Example 10, (R)-N-(2-(5-(3-aminopiperidine-1-carbonyl)-7-methoxy-1-methyl-1H-benzo[d]imidazol-2-yl)-1-(cyclopropylmethyl)-1H-pyrrolo [2,3-b]pyridin-6-yl)-N-propylmethanesulfonamide], with 0.33 µM; and `C[C@@H](NC(=O)C(C)(C)C)c1ccc2cc(-c3nc4cc(C(=O)N[C@H]5CNCC[C@@H]5F)c(F)cc4n3C)n(CC3CC3)c2n1` [Example 216, 2-(1-(cyclopropylmethyl)-6-((R)-1-pivalamidoethyl)-1H-pyrrolo[2,3-b]pyridin-2-yl)-6-fluoro-N-((3S,4S)-4-fluoropiperidin-3-yl)-1-methyl-1H-benzo[d]imidazole-5-carboxamide], with 0.158 µM.

For the molecule `COc1cc(C(=O)N2C[C@H](N)CC[C@@H]2C)cc2nc(-c3cc4ccc(C(=O)N(C)C)nc4n3CC3CC3)n(C)c12` [Example 250, 2-(5-((2S,5R)-5-amino-2-methylpiperidine-1-carbonyl)-7-methoxy-1-methyl-1H-benzo[d]imidazol-2-yl)-1-(cyclopropylmethyl)-N,N-dimethyl-1H-pyrrolo[2,3-b]pyridine-6-carboxamide], the IC50 under setting [1] was 0.874 µM. The same measure, in the same setting: under `COc1cc(C(=O)N2CCC[C@@H](N)C2)cc2nc(-c3cc4ccc(N(c5ccccc5)S(C)(=O)=O)nc4n3CC3CC3)n(C)c12` [Example 13, (R)-N-(2-(5-(3-aminopiperidine-1-carbonyl)-7-methoxy-1-methyl-1H-benzo[d]imidazol-2-yl)-1-(cyclopropylmethyl)-1H-pyrrolo [2,3-b]pyridin-6-yl)-N-phenylmethanesulfonamide] stands 3.57 µM; under `COc1cc(C(=O)N2CCC[C@@H](N)C2)cc2nc(-c3cc4ccc([C@@H](C)N5CCCC5=O)nc4n3CC3CC3)n(C3CC3)c12` [Example 244, 1-((R)-1-(2-(5-((R)-3-aminopiperidine-1-carbonyl)-1-cyclopropyl-7-methoxy-1H-benzo[d]imidazol-2-yl)-1-(cyclopropylmethyl)-1H-pyrrolo[2,3-b]pyridin-6-yl)ethyl)pyrrolidin-2-one], 0.0493 µM; under `COc1cc(C(=O)N2CCC[C@@H](N)C2)cc2nc(-c3cc4ccc([C@@H](C)NC(=O)C5CC5(F)F)cc4n3CC3CC3)n(C3CC3)c12` (stereo partly drawn) [Example 153, N-((R)-1-(2-(5-((R)-3-aminopiperidine-1-carbonyl)-1-cyclopropyl-7-methoxy-1H-benzo[d]imidazol-2-yl)-1-(cyclopropylmethyl)-1H-indol-6-yl)ethyl)-2,2-difluorocyclopropane-1-carboxamide], 0.102 µM. On the same count and under the same terms, under `COc1cc(C(=O)N2C[C@H](N)CC[C@@H]2C)cc2nc(-c3cc4ccc(-c5cccnc5N5CCOCC5)nc4n3CC3CC3)n(C)c12` [Example 261, ((2S,5R)-5-amino-2-methylpiperidin-1-yl)(2-(1-(cyclopropylmethyl)-6-(2-morpholinopyridin-3-yl)-1H-pyrrolo[2,3-b]pyridin-2-yl)-7-methoxy-1-methyl-1H-benzo[d]imidazol-5-yl)methanone] stands 0.457 µM. Still for that read-out and setting: then `COc1cc(C(=O)N2CCC3(CCC3N)C2)cc2nc(-c3cc4ccc(N(C(F)F)S(C)(=O)=O)nc4n3CC3CC3)n(C)c12` (centres unmarked) [Example 66, N-(2-(5-(1-amino-6-azaspiro[3.4]octane-6-carbonyl)-7-methoxy-1-methyl-1H-benzo[d]imidazol-2-yl)-1-(cyclopropylmethyl)-1H-pyrrolo[2,3-b]pyridin-6-yl)-N-(difluoromethyl) methanesulfonamide], with 21.7 µM; and `COc1cc(C(=O)N2[C@H]3CC[C@@H]2[C@H](N)C3)cc2nc(-c3cc4ccc([C@@H](C)NS(=O)(=O)c5cnn(C)c5)nc4n3CC3CC3)n(C)c12` [Example 241, N-((R)-1-(2-(5-((1R,2R,4S)-2-amino-7-azabicyclo[2.2.1]heptane-7-carbonyl)-7-methoxy-1-methyl-1H-benzo[d]imidazol-2-yl)-1-(cyclopropylmethyl)-1H-pyrrolo[2,3-b]pyridin-6-yl)ethyl)-1-methyl-1H-pyrazole-4-sulfonamide], with 0.0767 µM. `COc1cc(C(=O)N2[C@H]3CC[C@@H]2[C@H](N)C3)cc2nc(-c3cc4ccc([C@@H](C)NC(=O)c5ccc(F)cc5)nc4n3CC3CC3)n(C)c12` [Example 208, N-((R)-1-(2-(5-((1R,2R,4S)-2-amino-7-azabicyclo[2.2.1]heptane-7-carbonyl)-7-methoxy-1-methyl-1H-benzo[d]imidazol-2-yl)-1-(cyclopropylmethyl)-1H-pyrrolo[2,3-b]pyridin-6-yl)ethyl)-4-fluorobenzamide]: the IC50 under setting [1] stood at 0.138 µM.

With `C[C@H](CN)NC(=O)c1cc2nc(-c3cc4ccc(N(C(F)F)S(C)(=O)=O)nc4n3CC3CC3)n(C)c2cc1F` [Example 94, (R)-N-(1-aminopropan-2-yl)-2-(1-(cyclopropylmethyl)-6-((N-(difluoromethyl)methyl)sulfonamido)-1H-pyrrolo[2,3-b]pyridin-2-yl)-6-fluoro-1-methyl-1H-benzo[d]imidazole-5-carboxamide], the IC50 under setting [1] stood at 26.4 µM.
